In PubChem BioAssay AID318 (DTP/NCI, 2004):
Several values for one entry are separate records, joined by “and”; a condition that tells them apart may be missing. Equal values may be shown once. Toxic doses and inconclusive results are not listed. Starred links: 1 amine or outer side, 2 acyl side, 3 side chain; linkers in the order of their positions; H or OH if unused. Positions of bridges follow the written chain, without caps; N, C: chain ends. Non-standard residues stand in square brackets, D forms with d. Residues, ends and D or L forms follow the SMILES beside them. Chains are numbered I, II in the order given. Actinocin(9to1) = Cc1c2oc3c(C)ccc(C(=O)[*:1])c3nc-2c(C(=O)[*:2])c(N)c1=O; aThr = C[C@H](O)[C@H](N)C(=O)O; NMeV = CN[C@H](C(=O)O)C(C)C; Sar = CNCC(=O)O

System: BDF1 mice, P815 leukemia ip, survival T/C
Test: NCI In Vivo Anticancer Drug Screen. Data for tumor model P815 Mast Cell Leukemia (Ascitic) (intraperitoneal) in B6D2F1 (BDF1) mice
Details: higher = longer survival
Protocol: The antitumor activity of compounds was measured in mice bearing transplantable tumors. Survival or tumor size were measured and the results are expressed as the measurement made in the treated group (T) divided by the measurement made in the vehicle treated control group (C). The tumor model used in this assay is P815 Mast Cell Leukemia (Ascitic) (intraperitoneal) in B6D2F1 (BDF1) mice

[1] = endpoint: survival time, mean or median, dose: 6.25 mg/kg/injection, schedule: Q01DX010 (ip), vehicle: saline
[2] = endpoint: survival time, mean or median, dose: 12.5 mg/kg/injection, schedule: Q01DX010 (ip), vehicle: saline
[3] = endpoint: survival time, mean or median, dose: 62.5 mg/kg/injection, schedule: Q01DX010 (ip), vehicle: saline
[4] = endpoint: survival time, mean or median, dose: 125.0 mg/kg/injection, schedule: Q01DX010 (ip), vehicle: saline
[5] = endpoint: survival time, mean or median, dose: 250.0 mg/kg/injection, schedule: Q01DX010 (ip), vehicle: saline
[6] = endpoint: survival time, mean or median, dose: 15.0 mg/kg/injection, schedule: Q01DX010 (ip), vehicle: saline
[7] = endpoint: survival time, mean or median, dose: 30.0 mg/kg/injection, schedule: Q01DX010 (ip), vehicle: saline
[8] = endpoint: survival time, mean or median, dose: 60.0 mg/kg/injection, schedule: Q01DX010 (ip), vehicle: saline
[9] = endpoint: survival time, mean or median, dose: 20.0 mg/kg/injection, schedule: Q01DX010 (ip), vehicle: saline
[10] = endpoint: survival time, mean or median, dose: 40.0 mg/kg/injection, schedule: Q01DX010 (ip), vehicle: saline
[11] = endpoint: survival time, mean or median, dose: 2.0 mg/kg/injection, schedule: Q01DX010 (ip), vehicle: saline
[12] = endpoint: survival time, mean or median, dose: 4.0 mg/kg/injection, schedule: Q01DX010 (ip), vehicle: saline
[13] = endpoint: survival time, mean or median, dose: 25.0 mg/kg/injection, schedule: Q01DX010 (ip), vehicle: saline
[14] = endpoint: survival time, mean or median, dose: 10.0 mg/kg/injection, schedule: Q01DX010 (ip), vehicle: saline
[15] = endpoint: survival time, mean or median, dose: 3.13 mg/kg/injection, schedule: Q01DX010 (ip), vehicle: saline
[16] = endpoint: survival time, mean or median, dose: 5.0 mg/kg/injection, schedule: Q01DX010 (ip), vehicle: saline

## CC(Cl)CN(Cc1cc(O)c(CN(CC(C)Cl)CC(C)Cl)cc1O)CC(C)Cl (stereo not drawn)
endpoint: survival time, mean or median, dose: 62.5 mg/kg/injection, schedule: Q01DX015 (ip), vehicle: carboxymethylcellulose (CMC)
  T/C: 114 % of control
endpoint: survival time, mean or median, dose: 125.0 mg/kg/injection, schedule: Q01DX015 (ip), vehicle: carboxymethylcellulose (CMC)
  T/C: 99 % of control
endpoint: survival time, mean or median, dose: 250.0 mg/kg/injection, schedule: Q01DX015 (ip), vehicle: carboxymethylcellulose (CMC)
  T/C: 122 % of control
endpoint: survival time, mean or median, dose: 500.0 mg/kg/injection, schedule: Q01DX015 (ip), vehicle: carboxymethylcellulose (CMC)
  T/C: 124 % of control

## O=NN(CCCl)C(=O)NCCCl
[1]
  T/C: 245 % of control and 263 % of control
[2]
  T/C: 159 % of control

## CC(=O)N(C)C
[3]
  T/C: 91 % of control and 100 % of control
[4]
  T/C: 100 % of control and 108 % of control
[5]
  T/C: 91 % of control
endpoint: survival time, mean or median, dose: 500.0 mg/kg/injection, schedule: Q01DX010 (ip), vehicle: saline
  T/C: 95 % of control and 104 % of control

## CC(=O)Nc1ccc(/C=N/Nc2ccc([N+](=O)[O-])cn2)cc1
endpoint: survival time, mean or median, dose: 31.3 mg/kg/injection, schedule: Q01DX010 (ip), vehicle: saline
  T/C: 100 % of control
[3]
  T/C: 100 % of control
[4]
  T/C: 100 % of control
[5]
  T/C: 88 % of control

## O=c1cnn(C2OC(CO)C(O)C2O)c(=O)[nH]1 (stereo not drawn)
endpoint: survival time, mean or median, dose: 800.0 mg/kg/injection, schedule: Q01DX010 (ip), vehicle: saline
  T/C: 111 % of control
endpoint: survival time, mean or median, dose: 1600.0 mg/kg/injection, schedule: Q01DX010 (ip), vehicle: saline
  T/C: 100 % of control

## Clc1ncnc2nc[nH]c12
endpoint: survival time, mean or median, dose: 7.5 mg/kg/injection, schedule: Q01DX010 (ip), vehicle: saline
  T/C: 100 % of control
endpoint: survival time, mean or median, dose: 9.5 mg/kg/injection, schedule: Q01DX010 (ip), vehicle: saline
  T/C: 100 % of control
[6]
  T/C: 100 % of control
[7]
  T/C: 100 % of control
[8]
  T/C: 104 % of control and 109 % of control

## CCCCN(CCCC)CCCCCN
endpoint: survival time, mean or median, dose: 5.0 mg/kg/injection, schedule: Q01DX015 (ip), vehicle: carboxymethylcellulose (CMC)
  T/C: 111 % of control
endpoint: survival time, mean or median, dose: 10.0 mg/kg/injection, schedule: Q01DX015 (ip), vehicle: carboxymethylcellulose (CMC)
  T/C: 103 % of control
endpoint: survival time, mean or median, dose: 20.0 mg/kg/injection, schedule: Q01DX015 (ip), vehicle: carboxymethylcellulose (CMC)
  T/C: 104 % of control
endpoint: survival time, mean or median, dose: 30.0 mg/kg/injection, schedule: Q01DX015 (ip), vehicle: carboxymethylcellulose (CMC)
  T/C: 105 % of control

## OCC1OC(n2cnc3c(=S)nc[nH]c32)C(O)C1O (stereo not drawn)
[9]
  T/C: 104 % of control and 116 % of control
[10]
  T/C: 91 % of control and 108 % of control
endpoint: survival time, mean or median, dose: 80.0 mg/kg/injection, schedule: Q01DX010 (ip), vehicle: saline
  T/C: 95 % of control and 116 % of control

## O=C(Nc1ccc(NC2=NCCN2)cc1)c1ccc(C(=O)Nc2ccc(NC3=NCCN3)cc2)cc1
[11]
  T/C: 110 % of control and 111 % of control
[12]
  T/C: 105 % of control and 113 % of control

## C=CC(CN1CC1)OC(C)=O (stereo not drawn)
[11]
  T/C: 94 % of control
[12]
  T/C: 100 % of control
endpoint: survival time, mean or median, dose: 8.0 mg/kg/injection, schedule: Q01DX010 (ip), vehicle: saline
  T/C: 100 % of control

## COS(C)(=O)=O
[2]
  T/C: 100 % of control
[13]
  T/C: 100 % of control
endpoint: survival time, mean or median, dose: 50.0 mg/kg/injection, schedule: Q01DX010 (ip), vehicle: saline
  T/C: 100 % of control

## NC(Cc1ccc(N(CCCl)CCCl)cc1)C(=O)O (stereo not drawn)
endpoint: survival time, mean or median, dose: 4.0 mg/kg/injection, schedule: Q01DX010 (ip), vehicle: other
  T/C: 120 % of control
endpoint: survival time, mean or median, dose: 8.0 mg/kg/injection, schedule: Q01DX010 (ip), vehicle: other
  T/C: 100 % of control

## CCOC(=O)c1[nH]c2ccccc2c1CN(CCCl)CCCl
[14]
  T/C: 105 % of control
[9]
  T/C: 115 % of control
[10]
  T/C: 115 % of control

## O=C(Nc1ccc(C2=NCCN2)cc1)c1ccc(C(=O)Nc2ccc(C3=NCCN3)cc2)c(Cl)c1
endpoint: survival time, mean or median, dose: 1.5 mg/kg/injection, schedule: Q01DX015 (ip), vehicle: carboxymethylcellulose (CMC)
  T/C: 109 % of control
endpoint: survival time, mean or median, dose: 6.0 mg/kg/injection, schedule: Q01DX015 (ip), vehicle: carboxymethylcellulose (CMC)
  T/C: 182 % of control
endpoint: survival time, mean or median, dose: 9.0 mg/kg/injection, schedule: Q01DX015 (ip), vehicle: carboxymethylcellulose (CMC)
  T/C: 176 % of control

## Cc1nc(CON)cs1
endpoint: median survival time, dose: 50.0 mg/kg/injection, schedule: Q01DX015 (ip), vehicle: saline
  T/C: 90 % of control
endpoint: median survival time, dose: 100.0 mg/kg/injection, schedule: Q01DX015 (ip), vehicle: saline
  T/C: 94 % of control

## Cc1c2oc3c(C)ccc(C(=O)N[C@@H]4C(=O)N[C@H](C(C)C)C(=O)N5CCC[C@H]5C(=O)N(C)CC(=O)N(C)[C@@H](C(C)C)C(=O)O[C@H]4C)c3nc-2c(C(=O)N[C@@H]2C(=O)N[C@H](C(C)C)C(=O)N3CCC[C@H]3C(=O)N(C)CC(=O)N(C)[C@@H](C(C)C)C(=O)O[C@H]2C)c(N)c1=O (I: [aThr][dV]P[Sar][NMeV] / II: [aThr][dV]P[Sar][NMeV]; ester I:1-I:C, II:1-II:C; linker I:N-II:N via Actinocin(9to1))
endpoint: median survival time, dose: 180.0 micrograms/kg/injection, schedule: Q04DX003 (ip), vehicle: saline + alcohol
  T/C: 122 % of control
endpoint: median survival time, dose: 300.0 micrograms/kg/injection, schedule: Q04DX003 (ip), vehicle: saline + alcohol
  T/C: 105 % of control
endpoint: median survival time, dose: 500.0 micrograms/kg/injection, schedule: Q04DX003 (ip), vehicle: saline + alcohol
  T/C: 90 % of control

## O=C(Nc1ccc(C2=NCCN2)cc1)c1cc(C(=O)Nc2ccc(C3=NCCN3)cc2)cc([N+](=O)[O-])c1
endpoint: survival time, mean or median, dose: 167.0 mg/kg/injection, schedule: Q01DX010 (ip), vehicle: saline
  T/C: 91 % of control
[5]
  T/C: 95 % of control
endpoint: survival time, mean or median, dose: 375.0 mg/kg/injection, schedule: Q01DX010 (ip), vehicle: saline
  T/C: 91 % of control

## C[N+](C)(C)c1ncnc2nc[nH]c12
[6]
  T/C: 100 % of control
[7]
  T/C: 94 % of control
[8]
  T/C: 88 % of control

## [I][Hg][CH2]C1COC([CH2][Hg][I])CO1 (stereo not drawn)
[15]
  T/C: 90 % of control
[1]
  T/C: 90 % of control
[2]
  T/C: 95 % of control
[13]
  T/C: 90 % of control

## Cc1cc(N(CCCl)CCCl)ccc1N=Nc1ccccc1C(=O)O
[16]
  T/C: 105 % of control and 111 % of control
[14]
  T/C: 105 % of control and 111 % of control
[9]
  T/C: 111 % of control
[10]
  T/C: 88 % of control

## Nc1cc(C(=O)Nc2ccc(C3=NCCN3)cc2)cc(C(=O)Nc2ccc(C3=NCCN3)cc2)c1
endpoint: survival time, mean or median, dose: 16.0 mg/kg/injection, schedule: Q01DX010 (ip), vehicle: saline
  T/C: 116 % of control
endpoint: survival time, mean or median, dose: 32.0 mg/kg/injection, schedule: Q01DX010 (ip), vehicle: saline
  T/C: 120 % of control
endpoint: survival time, mean or median, dose: 64.0 mg/kg/injection, schedule: Q01DX010 (ip), vehicle: saline
  T/C: 150 % of control

## CCCNc1ncnc2[nH]ncc12
[15]
  T/C: 95 % of control and 104 % of control
[1]
  T/C: 100 % of control and 116 % of control
[2]
  T/C: 95 % of control and 100 % of control
[13]
  T/C: 95 % of control

## O=C(O)CCCc1ccc(N(CCCl)CCCl)cc1
[15]
  T/C: 100 % of control
[1]
  T/C: 105 % of control
[2]
  T/C: 122 % of control

## Oc1cc(CN(CCCl)CCCl)c(O)cc1CN(CCCl)CCCl
endpoint: survival time, mean or median, dose: 0.63 mg/kg/injection, schedule: Q01DX010 (ip), vehicle: saline
  T/C: 111 % of control
endpoint: survival time, mean or median, dose: 1.25 mg/kg/injection, schedule: Q01DX010 (ip), vehicle: saline
  T/C: 116 % of control and 122 % of control
endpoint: survival time, mean or median, dose: 2.5 mg/kg/injection, schedule: Q01DX010 (ip), vehicle: saline
  T/C: 172 % of control
[16]
  T/C: 122 % of control
[14]
  T/C: 122 % of control
